The results in this text go back to patent publication US10670576B2, “Device and method for measuring impedance in organotypic tissues” (Universität Leipzig, priority 2008, dated 2020).

The assay concerns hippocampal slice cultures. Kind of assay: Impedance measurement (TIECIR) of organotypic hippocampal slice cultures after induction of tau-hyperphosphorylation. Conditions: 1 μM, hippocampal slices of 8-9 day old rats, 7 days in culture, 100 Hz to 1 MHz, 10 mV, stable for 9 hours before application, remained small within the next seven hours. It is filed as cell-based. The protocol: The impedance changes caused by tau-hyperphosphorylation (FIG. 11) of hippocampal slices that were prepared from 8-9 day old rats were measured using the device according to the present invention. Six to eight hippocampal slices of 400 μm thickness were places on a aluminiumoxyd membrane (0.02 μm pore size) of a 6-well recording chamber and cultured for 7 days in 50% minimum essential media, 25% Hank's media, and 25% horse serum supplemented with L-glutamine and antibiotics. Impedance recording was performed by using a Agilent 4294A impedance analyser (Agilent Technologies Deutschland GmbH, Germany) in combination with a multiplexer (NI-SCXI-1153, National Instruments, USA).
24 hours before impedance measurement was carried out, medium replaced by fresh culture medium. The impedance was recorded in a frequency range of 100 Hz to 1 MHz by applying a voltage of 10 mV across a large top electrode and 60 substrate integrated bottom electrodes of 30 μm in diameter.
For measuring hippocampal slice cultures, the TIECIR method was used. Organotypic slice cultures were transiently covered with medium during impedance measurement, which usually takes less than 30 seconds for a single bottom electrode. […]

Structures are written as SMILES.

Take `C=C1[C@@H](O)[C@@H]2O[C@]3(CC[C@H](/C=C/[C@@H](C)[C@@H]4CC(C)=C[C@@]5(O[C@H](C[C@@](C)(O)C(=O)O)CC[C@H]5O)O4)O3)CC[C@H]2O[C@@H]1[C@@H](O)C[C@H](C)[C@H]1O[C@@]2(CCCCO2)CC[C@H]1C` [ocadaic acid]: the “normalized impedance (normalized against non-covered membrane)” value came out at 10%.
